Measured values as given in paper PMC5700336, “The Gastrointestinal Tract Is a Major Source of Echinocandin Drug Resistance in a Murine Model of Candida glabrata Colonization and Systemic Dissemination” (Antimicrobial Agents and Chemotherapy, 2017).

Tests used:
C. glabrata 2001 Δmsh2 [1] = test: Murine C. glabrata GI colonization model: GI/fecal burden under daily treatment; assay type: in vivo, Candida glabrata
Experimental: (§1) Six-week-old female outbred CF-1 immunocompetent mice (Charles River Laboratories) were treated (subcutaneously [s.c.]) with 320 mg/kg of piperacillin-tazobactam (PTZ; 8:1 ratio) beginning on day −2 to clear native intestinal bacterial flora. Daily PTZ treatment was maintained throughout the experiment (see Fig. 3A). On day 0, mice were inoculated via oral gavage with approximately 1.5 × 10^8 CFU of C. glabrata in 100 μl of saline. Mice were colonized with ATCC 2001 (CBS 138), clinical strains from the Perlin Laboratory collection, or mutator strain 2001 Δmsh2 ([19]). Fresh fecal samples were collected throughout the experiment to assess fungal burden in the GI tract. Daily administration of caspofungin (0.5, 5, or 20 mg/kg, i.p.), nikkomycin Z (100 mg/kg, oral) (Sigma), or saline (100 μl i.p.) was initiated on day 3 postinoculation and continued through sacrifice day (typically day 15). Caspofungin-resistant colony frequencies were determined through selection of fecal samples on yeast extract-peptone-dextrose (YPD) plates supplemented with caspofungin (2 μg/ml), PTZ (16 μg/ml), and chloramphenicol (20 μg/ml). The corticosteroid dexamethasone (DMX) was administered twice daily (100 mg/kg, i.p.) for 3 days (days 12 to 14) prior to euthanization (day 15; Fig. 3A). Blood, kidneys, liver, spleen, and the gastrointestinal tract components were collected on day 15 (or earlier where indicated), homogenized, and plated onto YPD plates supplemented with chloramphenicol (75 μg/ml) and ampicillin (50 μg/ml) to determine CFU levels.

C. glabrata 2001 Δmsh2 [2] = test: Systemic breakthrough (blood and organs) after dexamethasone immunosuppression; assay type: in vivo, Candida glabrata; settings: day 15
Experimental: as §1, with “Blood, kidneys, liver, spleen, and the gastrointestinal tract components were collected on day 15 (or earlier where indicated), homogenized, and plated onto YPD plates supplemented with chloramphenicol (75 μg/ml) and ampicillin (50 μg/ml) to determine CFU levels.” left out

[3] = Single-dose pharmacokinetics in plasma and GI lumen contents; assay type: in vivo, mice; settings: LC-MS/MS; for large intestine mean Cmax / small intestine mean Cmax: lumen contents, mean of three mice
Experimental: Mice were colonized with ATCC 2001 and then treated (i.p.) once with 5 or 20 mg/kg caspofungin at time zero (2 days postinoculation). Three mice from each treatment group were sacrificed at each time point (0, 1, 2, 4, 8, 16, 24, and 48 h), and blood and small and large intestinal lumen contents (without intestinal walls) were collected. Fecal pellets were also collected from mice at 0, 4, 16, 24, and 48 h prior to sacrifice. Caspofungin levels in plasma and GI compartments were measured by liquid chromatography-tandem mass spectrometry (LC-MS/MS) in electrospray positive-ionization mode (ESI+) on an AB Sciex QTrap 4000 triple-quadrupole mass spectrometer combined with an Agilent 1260 high-performance liquid chromatograph (HPLC) using the Analyst software and multiple-reaction monitoring (MRM) of precursor/product transitions. The MRM transitions used were 547.50/538.40 for caspofungin and 455.4/165.2 for the internal standard verapamil. Chromatography was performed with an Agilent Zorbax SB-C8 column (2.1 by 30 mm; particle size, 3.5 μm) using a reverse-phase gradient elution. One-tenth percent formic acid in Milli-Q deionized water was used for the aqueous mobile phase and 0.1% formic acid in acetonitrile (ACN) for the organic mobile phase. Small and large intestinal contents were homogenized prior to extraction by combining 3 parts PBS buffer to 1 part GI tract contents. One milligram per milliliter dimethyl sulfoxide (DMSO) stock was serially diluted in 50/50 ACN-water to create standard curves and quality control spiking solutions. Twenty microliters of neat spiking solutions was added to 20 μl of drug-free mouse K2EDTA plasma (Bioreclamation) or GI tract homogenate, and extraction was performed by adding 200 μl of acetonitrile-methanol 50/50 protein precipitation solvent containing 10 ng/ml verapamil (Sigma). Extracts were vortexed for 5 min and centrifuged at 4,000 rpm for 5 min. The supernatants were analyzed by LC-MS. Sample analysis was accepted if the concentrations of the quality control samples were within 20% of the nominal concentration.

C. glabrata ATCC 2001 = test: GI yeast burden after a single caspofungin dose; assay type: in vivo, Candida glabrata
[4] = test system: C. glabrata Δmsh2 mutant cells; test: In vitro caspofungin-resistant colony frequency after nikkomycin pretreatment; assay type: cell-based, Candida glabrata; settings: cells incubated with nikkomycin Z for 2 h prior to plating on agar with 2 μg/ml caspofungin
Experimental: FIG 4 Nikkomycin reduces C. glabrata caspofungin resistance and tolerance formation in vitro. (A) Caspofungin-resistant colony frequencies following selection on agar plates containing 2 μg/ml caspofungin. Cells were incubated with the indicated concentrations of nikkomycin Z for 2 h prior to plating. (B) Killing assay with strains grown in the presence or absence of 128 μg/ml nikkomycin Z (Nz) and increasing concentrations of caspofungin. The mean counts from three independent biological experiments ± standard deviations are shown.

[5] = test system: C. glabrata wild-type and Δmsh2 cells; test: In vitro killing assay; assay type: cell-based, Candida glabrata; settings: 128 μg/ml nikkomycin Z, caspofungin 0.016 to 32 μg/ml, RPMI, 37°C, 24 h; three independent experiments
Experimental: Fresh 1-ml RPMI cultures (plus necessary amino acids) of C. glabrata (1 × 10^7 cells) were incubated at 37°C while shaking (165 rpm) for 24 h in 2-fold increasing concentrations (0.016 to 32 μg/ml) of caspofungin and in the presence (128 μg/ml) or absence of nikkomycin Z. After 24 h, 100 μl of the appropriate dilutions for each culture was plated onto YPD plates. CFU were counted 24 h after plating and data represented as the CFU per milliliter that survived at each concentration of drug.

[6] = single i.p. dose, both 5 and 20 mg/kg, lumen contents without intestinal walls, three mice per time point

SMILES | change in GI burden (C. glabrata 2001 Δmsh2 [1]; caspofungin 0.5 mg/kg i.p. daily) | change in GI burden (C. glabrata 2001 Δmsh2 [1]; caspofungin 5 mg/kg i.p. daily) | decrease in average GI burden (C. glabrata 2001 Δmsh2 [1]; caspofungin 20 mg/kg i.p. daily from day 3, following 5 days of treatment, 10 mice per group) | GI burden after rebound to baseline (C. glabrata 2001 Δmsh2 [1]; caspofungin 20 mg/kg i.p. daily, by day 11) | decrease in fecal burden (C. glabrata 2001 Δmsh2 [1]; following 4 days of 20 mg/kg caspofungin) | average decrease of colonization levels throughout the GI tract (C. glabrata 2001 Δmsh2 [1]; following 4 days of 20 mg/kg caspofungin, one mouse per condition) | bloodstream infection (C. glabrata 2001 Δmsh2 [2]; caspofungin 5 mg/kg i.p. daily) | bloodstream infection (C. glabrata 2001 Δmsh2 [2]; caspofungin 20 mg/kg i.p. daily) | Tmax ([3]; mouse, plasma, ip, single i.p. dose, both 5 and 20 mg/kg, colonized CF-1 mice, three mice per time point, read-out: time of Cmax, plasma) | large intestine mean Cmax ([3]; single i.p. dose 5 mg/kg) | small intestine mean Cmax ([3]; single i.p. dose 5 mg/kg) | large intestine mean Cmax ([3]; single i.p. dose 20 mg/kg) | small intestine mean Cmax ([3]; single i.p. dose 20 mg/kg) | time of Cmax, large intestine [3, 6] | time of Cmax, small intestine [3, 6] | GI burden levels after single dose (C. glabrata ATCC 2001; single i.p. dose 5 mg/kg) | GI burden levels after single dose (C. glabrata ATCC 2001; single i.p. dose 20 mg/kg) | effect on caspofungin-resistant colony frequency [4] | effect on killing by caspofungin [5]
CC[C@H](C)C[C@H](C)CCCCCCCCC(=O)N[C@H]1C[C@@H](O)[C@@H](NCCN)NC(=O)[C@@H]2[C@@H](O)CCN2C(=O)[C@H]([C@H](O)CCN)NC(=O)[C@H]([C@H](O)[C@@H](O)c2ccc(O)cc2)NC(=O)[C@@H]2C[C@@H](O)CN2C(=O)[C@H]([C@@H](C)O)NC1=O [caspofungin] | unchanged | unchanged | ~2.5 log | ~1 × 10^8 CFU/g of stool | 2.8 log | 2.7 log | no isolates were recovered from the blood | no isolates were recovered from the blood | 2 h | 3800 ng/mL | 9100 ng/mL | 36200 ng/mL | 22200 ng/mL | 8 h | 4 h | minimal decrease and faster recovery to baseline | decreased by 16 h and then returned to original baseline levels by 48 h |  | 
C[C@@H]([C@H](N)C(=O)N[C@H](C(=O)O)[C@H]1O[C@@H](n2ccc(=O)[nH]c2=O)[C@H](O)[C@@H]1O)[C@H](O)c1ccc(O)cn1 [nikkomycin, nikkomycin Z] |  |  |  |  |  |  |  |  |  |  |  |  |  |  |  |  |  | reduced the frequency of caspofungin-resistant mutants | increased the killing ability of caspofungin
